Laboratory results from US20230181614A1, “ADMINISTRATION OF CITICOLINE TO IMPROVE COGNITIVE PERFORMANCE, ATTENTIONAL PERFORMANCE, AND MOTOR FUNCTION” (KYOWA HAKKO BIO CO., LTD., priority 2014, published 2023).
“And” between values parts separate entries of the source, which are not always exact repeats. Equal entries are not always repeated.

Key:
[1] = test system: Healthy subjects, ages 13-18; assay: Barratt Impulsiveness Scale (BIS); assay type: in vivo, human; parameters: BIS Attention, Mean / BIS Motor, Mean / BIS Total, Mean: scale not given here
From the text: Study participants were screened by telephone prior to study enrollment. Healthy subjects, ages 13-18, with no significant medical conditions and no history of co-morbid psychiatric disorder, current Axis I or II diagnosis, or previous participation in a pharmacotherapeutic trial, were selected. Use of any psychotropic medication or any previous head injury resulting in loss of consciousness for 5 or more minutes were used as exclusion criteria. While no participant met criteria for a neuropsychiatric disorder at enrollment, clinical assessments were still completed throughout the study to evaluate changes in mood state. In addition, self-reports of sleep habits, lifestyle, and exercise routines were also administered at baseline as well as at each study visit to assess changes in health habits during study participation. Following the completion of Visit 1 assessment, participants were given their 28-day supply of citicoline (250 mg or 500 mg) or placebo, which was randomly assigned. They were instructed to take one capsule a day every day for the next 28 days. Visit 2 occurred fourteen days after Visit 1. At Visit 2, the remaining study pills were counted and participant dosage calendars were checked to ensure compliance with the protocol. Additional neuropsychological measures and clinical assessments were administered during this visit. Participants returned for Visit 3 fourteen days later, on the 28th day of their study participation. The pill bottle and the dosage calendar were collected from each participant. Urine and blood were again obtained. Participants also participated in similar clinical and neuropsychological testing and clinical measures that were given during visit 1. The BIS is a questionnaire is a scale used to measure impulsiveness. It includes three subscales: attentional, motor, and non-planning impulsiveness. A total score, or a sum of the three factors, was also calculated. The scale was administered at the first and third visits to assess presence or absence of symptoms of impulsiveness.

[2] = test system: Healthy subjects, ages 13-18; assay: Continuous Performance Test (CPT); assay type: in vivo, human; details: for CPT Commissions V1, Mean / CPT Omissions V1, Mean / CPT Hit Reaction Time V1, Mean: Visit 1
From the text: Study participants were screened by telephone prior to study enrollment. Healthy subjects, ages 13-18, with no significant medical conditions and no history of co-morbid psychiatric disorder, current Axis I or II diagnosis, or previous participation in a pharmacotherapeutic trial, were selected. Use of any psychotropic medication or any previous head injury resulting in loss of consciousness for 5 or more minutes were used as exclusion criteria. While no participant met criteria for a neuropsychiatric disorder at enrollment, clinical assessments were still completed throughout the study to evaluate changes in mood state. In addition, self-reports of sleep habits, lifestyle, and exercise routines were also administered at baseline as well as at each study visit to assess changes in health habits during study participation. Following the completion of Visit 1 assessment, participants were given their 28-day supply of citicoline (250 mg or 500 mg) or placebo, which was randomly assigned. They were instructed to take one capsule a day every day for the next 28 days. Visit 2 occurred fourteen days after Visit 1. At Visit 2, the remaining study pills were counted and participant dosage calendars were checked to ensure compliance with the protocol. Additional neuropsychological measures and clinical assessments were administered during this visit. Participants returned for Visit 3 fourteen days later, on the 28th day of their study participation. The pill bottle and the dosage calendar were collected from each participant. Urine and blood were again obtained. Participants also participated in similar clinical and neuropsychological testing and clinical measures that were given during visit 1. The CPT is a test of sustained attention that has been adapted for computerized administration. The test requires participants to attend vigilantly to a series of target and distracter stimuli for a 14-minute duration. […] The CPT was administered at all three visits.

[3] = 250 mg/day group, Visit difference score
[4] = 250 mg/day group, Visit 3, in ms (unit assumed)
[5] = 250 mg/day group, visit difference score V3-V1
[6] = 500 mg/day group, Visit difference score

C[N+](C)(C)CCOP(=O)(O)OP(=O)([O-])OC[C@H]1O[C@@H](n2ccc(N)nc2=O)[C@H](O)[C@@H]1O [citicoline, Cytidine 5′-diphosphocholine]
BIS Attention, Mean ([1]; 250 mg/day, V1 (baseline)): 18.52 | BIS Motor, Mean ([1]; 250 mg/day, V1 (baseline)): 22.22 | BIS Non-planning, Mean ([1]; 250 mg/day, V1 (baseline)): 24.85 | BIS Total, Mean ([1]; 250 mg/day, V1 (baseline)): 65.59 | BIS Attention, Mean ([1]; 250 mg/day, V3 (day 28)): 18.59 | BIS Motor, Mean ([1]; 250 mg/day, V3 (day 28)): 22.00 | BIS Non-planning, Mean ([1]; 250 mg/day, V3 (day 28)): 24.44 | BIS Total, Mean ([1]; 250 mg/day, V3 (day 28)): 65.04 | BIS Attention, Mean ([1]; 250 mg/day, V3-V1): 0.07 | BIS Motor, Mean ([1]; 250 mg/day, V3-V1): -0.22 | BIS Non-planning, Mean ([1]; 250 mg/day, V3-V1): -0.41 | BIS Attention, Mean ([1]; 500 mg/day, V1 (baseline)): 16.54 | BIS Motor, Mean ([1]; 500 mg/day, V1 (baseline)): 20.21 | BIS Non-planning, Mean ([1]; 500 mg/day, V1 (baseline)): 22.67 | BIS Total, Mean ([1]; 500 mg/day, V1 (baseline)): 59.63 | BIS Attention, Mean ([1]; 500 mg/day, V3 (day 28)): 16.50 | BIS Motor, Mean ([1]; 500 mg/day, V3 (day 28)): 20.04 and 19.29 | BIS Non-planning, Mean ([1]; 500 mg/day, V3 (day 28)): 21.71 and 22.42 | BIS Total, Mean ([1]; 500 mg/day, V3 (day 28)): 58.21 | BIS Attention, Mean ([1]; 500 mg/day, V3-V1): -0.04 | BIS Motor, Mean ([1]; 500 mg/day, V3-V1): -1.00 | BIS Non-planning, Mean ([1]; 500 mg/day, V3-V1): -0.38 | BIS Total, Mean ([1]; 500 mg/day, V3-V1): -1.42 | CPT Commissions V1, Mean ([2]; 250 mg/day group): 18.22 | CPT Omissions V1, Mean ([2]; 250 mg/day group): 9.59 | CPT Hit Reaction Time V1, Mean ([2]; 250 mg/day group, in ms (unit assumed)): 362.62 | V3-V1 CPT Commissions, Mean [2, 3]: -1.26 | V3-V1 CPT Omissions, Mean [2, 3]: 4.93 | V3-V1 CPT Hit Reaction Time, Mean ([2]; 250 mg/day group, Visit difference score, in ms (unit assumed)): 34.57 | CPT Commissions V3, Mean ([2]; 250 mg/day group, Visit 3): 16.96 | CPT Omissions V3, Mean ([2]; 250 mg/day group, Visit 3): 14.52 | V3 CPT Commissions (Mean) ([2]; 250 mg/day group, Visit 3): 16.96 | V3 CPT Omissions (Mean) ([2]; 250 mg/day group, Visit 3): 14.52 | CPT Hit Reaction Time V3, Mean [2, 4]: 397.19 | V3 CPT Hit Reaction Time (Mean) [2, 4]: 397.19 | V3-V1 CPT Commissions, Mean [2, 5]: -1.26 | V3-V1 CPT Omissions, Mean [2, 5]: 4.93 | V3-V1 CPT Hit Reaction Time, Mean ([2]; 250 mg/day group, visit difference score V3-V1, in ms (unit assumed)): 34.57 | CPT Commissions V1, Mean ([2]; 500 mg/day group): 18.79 | CPT Omissions V1, Mean ([2]; 500 mg/day group): 8.42 | CPT Hit Reaction Time V1, Mean ([2]; 500 mg/day group, in ms (unit assumed)): 363.58 | CPT Hit Reaction Time V3, Mean ([2]; 500 mg/day group, Visit 3, in ms (unit assumed)): 391.30 | V3-V1 CPT Commissions, Mean [2, 6]: -3.88 | V3-V1 CPT Omissions, Mean [2, 6]: 5.33 | V3-V1 CPT Hit Reaction Time, Mean ([2]; 500 mg/day group, Visit difference score, in ms (unit assumed)): 27.71 | CPT Commissions V3, Mean ([2]; 500 mg/day group, Visit 3): 14.92 | CPT Omissions V3, Mean ([2]; 500 mg/day group, Visit 3): 13.75
